Test results: patent US20130123287A1, “CONTROL AGENT FOR SOFT ROT AND CONTROL METHOD FOR THE SAME” (ISHIHARA SANGYO KAISHA, LTD., priority 2010, published 2013)

Assays:
[1] = system: soft rot of Chinese cabbage; assay: Test for controlling soft rot of Chinese cabbage, Example 1 / Comparative Example 1 (field, cultivar Muso); format: in vivo; settings: 1/1000 dilution, 300 L/10a sprayed three times on stems and leaves, 54 days after start
Method: 200 g/l Azoxystrobin (Amistar 20 FLOWABLE [trade name], manufactured by Syngenta Japan K.K.) was adjusted to 250 g ai/10a (0.25 g/m^2, 1250 ml Product/10a) as the amount of the active ingredient and to 150 L/10a as the volume of diluent water.
100 g/l Cyazofamid (RANMAN FLOWABLE [trade name], manufactured by Ishihara Sangyo Kaisha, Ltd.) was adjusted to 250 g ai/10a (0.25 g/m^2, 2500 ml Product/10a) as the amount of the active ingredient and to 150 L/10a as the volume of diluent water.
177 g/l Amisulbrom (LEIMAY FLOWABLE [trade name], manufactured by Nissan Chemical Industries, Ltd.) was adjusted individually to 250 g ai/10a (0.25 g/m^2, 1412 ml Product/10a) as the amount of the active ingredient and to 150 L/10a as the volume of diluent water.
After spreading an agricultural mulch-sheet and opening planting holes (diameter of about 9 cm) for permanent planting through the mulch-sheet, the spray solutions prepared as described above were sprayed onto the planting holes such that the amount of treated active ingredient of each spray solution was 0.25 g/m^2 (150 L per 10a), followed by air-drying; subsequently, seedlings of Chinese cabbage (cultivar: Muso) grown for 4 weeks in cell mold trays (128 holes/nursery box) were planted such that 30 seedlings were planted in each test lot having an area of 6 m^2 with two replications.
(§1) Preparation was performed by diluting streptomycin (Mycin 20 wettable powder solution [under the trade name] manufactured by Hokko Chemical Industry Co., Ltd.) with water to 1/1000.
In a field spread with the agricultural mulch-sheet, Chinese cabbage seedlings (cultivar: Muso) grown by the same method as in Example 1 were planted by the same method as in Example 1, for spraying the spray solution of streptomycin prepared above in (1) (at each spray volume of 300 L/10a) three times (13 days, 20 days and 27 days after the planting of the seedlings) on the stems and leaves.
54 days after the start of the tests, all the plants in each lot were examined about the severity level of the disease; according to the following equations, the ratio of the plants with the onset of the disease, the frequency of the disease, and the disease control value were calculated to determine and rank the effects at A to D levels. Because soft rot is a disease with damages hardly controlled, herein, even a chemical at the level C determined by the tests of the effects can practically be used.
Ratio of the plants with the onset of the disease=(Number of plants with the onset of the disease/number of plants examined)*100
Frequency of the disease=[sigma(number of plants with the onset of the disease at each severity level*index of the onset of the disease)/(plants examined*4)]*100 […]

[2] = system: soft rot of Chinese cabbage; assay: Test for controlling soft rot of Chinese cabbage, Example 2 / Comparative Example 2 (field, cultivar Harebutai 65); format: in vivo; settings: 1/1000 dilution, 300 L/10a sprayed twice on stems and leaves, 64 days after start
Text: Frequency of the disease=[sigma(number of plants with the onset of the disease at each severity level*index of the onset of the disease)/(plants examined*4)]*100
Disease control value=[1-(frequency of the disease in the treated lot/frequency of the disease in the non-treated lot)]*100
• 0: No onset • 1: Onset in some of outer leaves (shippable) • 2: Onset in outer leaves and some of head leaves (by removing damaged parts, the resulting cabbage can be shipped as small cabbage but is ranked as grade B). • 3: Most of head leaves are inflicted with the onset of the disease or with severer damages (not shippable) • 4: Whole cabbage plant is inflicted with the onset of the disease and is dead.
200 g/l Azoxystrobin (Amistar 20 FLOWABLE [trade name], manufactured by Syngenta Japan K.K.) was adjusted to 500 g ai/10a (0.5 g/m^2, 2500 ml Product/10a) as the amount of the active ingredient and to 150 L/10a as the volume of diluent water.
30% w/w triflumizol (TRIFUMIN WP [trade name], manufactured by Nippon Soda Co., Ltd.) was adjusted to 500 g ai/10a (0.5 g/m^2, 1667 g Product/10a) as the amount of the active ingredient and to 150 L/10a as the volume of diluent water.
100 g/1 cyazofamid (RANMAN PLOWABLE [trade name], manufactured by Ishihara Sangyo Kaisha, Ltd.) was adjusted to 500 g ai/10a (0.5 g/m^2, 5000 ml Product/10a) as the amount of the active ingredient and to 150 L/10a as the volume of diluent water.
50% w/w penthiopyrad (GAIA WG [trade name], manufactured by Mitsui Chemicals Agro, Inc.) was adjusted to 500 g ai/10a (0.5 g/m^2, 1000 g Product/10a) as the amount of the active ingredient and to 150 L/10a as the volume of diluent water.
50 g/l flusulfamide (SCABLOCK SC [trade name], manufactured by Mitsui Chemicals Agro, Inc.) was adjusted to 500 g ai/10a (0.5 g/m^2, 10000 ml Product/10a) as the amount of the active ingredient and to 150 L/10a as the volume of diluent water.
400 g/1 chlorothalonil (Daconil 1000 [the trade name], manufactured by Sumitomo Chemical, Limited) was adjusted to 1000 g ai/10a (1.0 g/m^2, 2500 ml Product/10a) as the amount of the active ingredient and to 150 L/10a as the volume of diluent water.
After spreading an agricultural mulch-sheet and opening planting holes (diameter of about 5 cm) for permanent planting through the mulch-sheet, the spray solutions prepared as described above were sprayed onto the planting holes such that the amount of treated active ingredient of chlorothalonil was 1.0 g/m^2 (150 L per 10a) and the amount of each of the remaining spray solutions was 0.5 g/m^2 (150 L per 10a), followed by air-drying; subsequently, seedlings of Chinese cabbage (cultivar Harebutai 65) grown for 4 weeks in cell mold trays (128 holes/nursery box) were planted such that 19 seedlings were planted in each test lot having an area of 2.4 m^2 with two replications.
as §1
In a field spread with the agricultural mulch-sheet, Chinese cabbage seedlings (cultivar: Harebutai 65) grown by the same method as in Example 2 were planted by the same method as in Example 2, for spraying the spray solution of streptomycin prepared above in (1) (at each spray volume of 300 L/10a) twice (27 days and 48 days after the planting of the seedlings) on the stems and leaves with a sprayer.
64 days after the start of the tests, all the plants in each lot were examined about the severity level of the disease to assess the frequency of the disease and the disease control value. In the same manner as described above, the frequency of the disease and the disease control value were determined. Additionally, soft rot is a disease with damages hardly controlled, so even a chemical at the level C determined by the tests of the effects can practically be used.

With [H]/N=C(/N)N[C@H]1[C@H](O)[C@@H](O)[C@H](O[C@@H]2O[C@@H](C)[C@](O)(C=O)[C@H]2O[C@@H]2O[C@@H](CO)[C@H](O)[C@@H](O)[C@@H]2NC)[C@@H](N/C(N)=N\[H])[C@@H]1O [Streptomycin] the Determination of effect [1] was “D (D: Poorly effective (20 or smaller disease control value))” and the Determination of effect [2] was “B (B: Effective (41 to 60 disease control value))”.
